This is an account of results in publication PMC11851430, “Workflow for E3 Ligase Ligand Validation for PROTAC Development” (ACS Chemical Biology, 2025).

The target in test [1] is T1, kinase protein levels in MCF-7 cells (Homo sapiens, UniProt A0A024RBG1).
T1 construct: endogenous in cells; host or cells: MCF-7
In words: TMT-labeled quantitative proteomics. It is filed as cell-based. The following applies: protein NUDT4B; MCF7; 1 µM; set2.

Test [2] concerns the target T2, kinase protein levels in MCF-7 cells (Homo sapiens, UniProt P0DPI2).
T2 construct: endogenous in cells; host or cells: MCF-7
T2 sequence (P0DPI2 42-268): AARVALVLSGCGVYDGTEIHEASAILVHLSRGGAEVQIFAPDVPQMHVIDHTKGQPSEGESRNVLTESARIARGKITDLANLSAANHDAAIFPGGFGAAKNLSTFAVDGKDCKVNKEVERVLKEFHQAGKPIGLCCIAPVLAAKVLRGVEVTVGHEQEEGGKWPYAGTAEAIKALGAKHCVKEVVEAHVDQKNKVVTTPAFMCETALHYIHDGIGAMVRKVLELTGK
In words: TMT-labeled quantitative proteomics. It is filed as cell-based. The following applies: protein GATD3; MCF7; 1 µM; set2.

T1 sequence (A0A024RBG1 whole entry): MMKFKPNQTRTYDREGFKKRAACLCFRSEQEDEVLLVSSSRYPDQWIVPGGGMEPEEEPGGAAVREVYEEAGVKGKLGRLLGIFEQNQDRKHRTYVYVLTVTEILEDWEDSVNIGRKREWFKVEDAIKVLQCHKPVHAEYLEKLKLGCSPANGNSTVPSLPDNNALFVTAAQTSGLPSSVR

For the compound `CC(=O)N[C@H](C(=O)N1C[C@H](O)C[C@H]1C(=O)NCc1ccc(-c2scnc2C)cc1OCCOCCOCCOCCNC(=O)c1cc(Nc2cc(C3CC3)[nH]n2)nc(Nc2ccc(CC#N)cc2)n1)C(C)(C)C` [5-b], in test [1], the “P.Value (compound/DMSO)” value was found to be 0.01265 and the “log2FC (compound/DMSO)” value is -0.4511. Besides, in test [2], the “P.Value (compound/DMSO)” value worked out at 0.01692 and the “log2FC (compound/DMSO)” value is recorded as -0.3786.

For the compound `CC(=O)N[C@H](C(=O)N1C[C@H](O)C[C@H]1C(=O)NCc1ccc(-c2scnc2C)cc1OCCOCCOCCOCCOCCC(=O)N1CCN(c2ccc(Nc3ncc(Cl)c(Nc4ccccc4C(N)=O)n3)cc2)CC1)C(C)(C)C` [6-e], in test [1], the “P.Value (compound/DMSO)” value amounted to 0.2879 and the “log2FC (compound/DMSO)” value came to 0.1111. Besides, in test [2], the “P.Value (compound/DMSO)” value worked out at 0.4778 and the “log2FC (compound/DMSO)” value is 0.0741.
